Results: patent US4196205A, “3-Acetoxymethyl-7-(iminoacetamido)-cephalosporanic acid derivatives” (priority 1976, dated 1980)
Where two headings read alike, the source gives them in different places.

Columns and labels:
[1] = tested on: Proteus Mirabilis A 235; assay: Experimental infection of Proteus Mirabilis in mice; assay type: in vivo
Procedure: Groups of 10 mice with an average weight of 22 g received intraperitoneally 0.5 ml of a 24 hour old culture in oxoid bouillon of Proteus Mirabilis A 235 diluted 1/4 with distilled water. The mice then received subcutaneously the compound of Examples 11 or 15 one hour and 5 and 24 hours after the infection and the results are reported in the following Table.

[2] = tested on: Escherichia Coli Resistant Tetracycline ATCC 11 303 = UC 1261; assay: MIC, dilution in liquid medium; assay type: cell-based; settings: Escherichia coli
Procedure: (§1) The method used was a dilution of a liquid medium where a series of tubes received the same quantity of a sterile nutritive media and increasing doses of the test compounds were placed therein. Then each tube was seeded with a bacterial strain and was incubated for 24 to 48 hours at 37° C. in an oven. The increasing inhibition was determined by transillumination to determine the minimum inhibiting concentration (MIC in […]) and the results are reported in the following Tables.

[3] = tested on: Staphylococcus aureus ATCC 5 638 Pen-Sensible = UC 1061; assay: MIC, dilution in liquid medium; assay type: cell-based
Procedure: as §1

[4] = tested on: Proteus vulgaris (indol+) A 232; assay: MIC, dilution in liquid medium; assay type: cell-based; settings: Proteus vulgaris
Procedure: as §1

[5] = tested on: Providencia Du 48; assay: MIC, dilution in liquid medium; assay type: cell-based; settings: for MIC: Providencia
Procedure: as §1

[6] = tested on: Klebsiella pneumoniae 2 536 Resistant Gentamicine; assay: MIC, dilution in liquid medium; assay type: cell-based; settings: Klebsiella pneumoniae
Procedure: as §1

[7] = tested on: Streptococcus faecalis 5 432; assay: MIC, dilution in liquid medium; assay type: cell-based
Procedure: as §1

[8] = tested on: Staphylococcus aureus UC 1 128 Pen-Resistant; assay: MIC, dilution in liquid medium; assay type: cell-based; settings: Staphylococcus aureus
Procedure: as §1

[9] = tested on: Serratia Resistant Gentamicine 2 532; assay: MIC, dilution in liquid medium; assay type: cell-based
Procedure: as §1

[10] = tested on: Streptococcus pyogenes A 561; assay: MIC, dilution in liquid medium; assay type: cell-based; settings: Streptococcus pyogenes
Procedure: as §1

[11] = tested on: Bacillus subtilis ATCC 6 633; assay: MIC, dilution in liquid medium; assay type: cell-based; settings: for MIC: Bacillus subtilis
Procedure: as §1

[12] = tested on: Streptococcus faecalis 99 F 74; assay: MIC, dilution in liquid medium; assay type: cell-based; settings: Enterococcus faecalis
Procedure: as §1

[13] = tested on: Staphylococcus aureus exp. n° 54 146; assay: MIC, dilution in liquid medium; assay type: cell-based; settings: Staphylococcus aureus
Procedure: as §1

[14] = tested on: Proteus mirabilis (indol-) A 235; assay: MIC, dilution in liquid medium; assay type: cell-based; settings: for MIC: Proteus mirabilis
Procedure: as §1

[15] = tested on: Escherichia Coli Resistant Gentamicine, Tobramycine R 55 123 D; assay: MIC, dilution in liquid medium; assay type: cell-based; settings: Escherichia coli
Procedure: as §1

[16] = tested on: Klebsiella pneumoniae Exp. 52 145; assay: MIC, dilution in liquid medium; assay type: cell-based; settings: for MIC: Klebsiella pneumoniae
Procedure: as §1

[17] = tested on: Escherichia Coli Sensible Tetracycline ATCC 9 637 = 1020; assay: MIC, dilution in liquid medium; assay type: cell-based; settings: Escherichia coli
Procedure: as §1

[18] = tested on: Salmonella typhimurium 420; assay: MIC, dilution in liquid medium; assay type: cell-based; settings: Salmonella enterica, TYPHIMURIUM
Procedure: as §1

[19] = tested on: Pseudomonas 3 935 Exp. SG; assay: MIC, dilution in liquid medium; assay type: cell-based; settings: Pseudomonas, 3935EXP.SG
Procedure: as §1

[20] = tested on: Escherichia Coli Exp. TO26 B6; assay: MIC, dilution in liquid medium; assay type: cell-based; settings: for MIC: Escherichia coli
Procedure: as §1

CCO/N=C(/C(=O)NC1C(=O)N2C(C(=O)O)=C(COC(C)=O)CSC12)c1csc(N)n1 (stereo not drawn) [Example 15, anti isomer of 3-acetoxymethyl-7-[2-(2-amino-4-thiazolyl)-2-ethoxyiminoacetamido]-ceph-3-eme-4-carboxylic acid]
10 µg/mL: MIC ([2]; 24 h, read-out: M.I.C.) | MIC ([2]; 48 h, read-out: M.I.C.) | MIC ([11]; ATCC6, 24 h, 24 H, read-out: M.I.C.) | MIC ([14]; 24 h, read-out: M.I.C.)
5: MORTALITY AFTER 21H30 ([1]; 1 mg subcutaneously)
1 µg/mL: MIC ([10]; A561, 24 h) | MIC ([10]; A561, 48 h)
5 µg/mL: M.I.C. ([14]; 24 H)
> 100 µg/mL: MIC ([4]; 24 h, read-out: M.I.C.) | MIC ([4]; 48 h, read-out: M.I.C.) | M.I.C. ([5]; 24 H) | MIC ([5]; DU48, 48 h, 48 H, read-out: M.I.C.) | MIC ([6]; 24 h, read-out: M.I.C.) | MIC ([6]; 48 h, read-out: M.I.C.) | MIC ([7]; Enterococcus faecalis, 5432, 24 h, read-out: M.I.C.) | MIC ([7]; Enterococcus faecalis, 5432, 48 h, read-out: M.I.C.) | MIC ([9]; 24 h, read-out: M.I.C.) | MIC ([9]; 48 h, read-out: M.I.C.) | MIC ([12]; 99F74, 24 h, read-out: M.I.C.) | MIC ([12]; 99F74, 48 h, read-out: M.I.C.) | MIC ([17]; ATCC9, 24 h, 24 H, read-out: M.I.C.) | MIC ([17]; ATCC9, 48 h, 48 H, read-out: M.I.C.) | MIC ([19]; 24 h, read-out: M.I.C.) | MIC ([19]; 48 h, read-out: M.I.C.)
100 µg/mL: MIC ([5]; DU48, 24 h, 24 H, read-out: M.I.C.) | MIC ([15]; 24 h, read-out: M.I.C.) | MIC ([15]; 48 h, read-out: M.I.C.) | MIC ([18]; 24 h, read-out: M.I.C.) | MIC ([18]; 48 h, read-out: M.I.C.)
2: MORTALITY AFTER 28H ([1]; 1 mg subcutaneously)
9: MORTALITY AFTER 21H30 ([1]; 0.5 mg subcutaneously)
1: MORTALITY AFTER 6H55 ([1]; 0.5 mg subcutaneously) | MORTALITY AFTER 23H10 ([1]; 1 mg subcutaneously) | MORTALITY AFTER 23H30 ([1]; 1 mg subcutaneously) | MORTALITY AFTER 70H ([1]; 1 mg subcutaneously)
0.4 µg/mL: MIC ([10]; A561, 24 h, 24 H, read-out: M.I.C.) | MIC ([10]; A561, 48 h, 48 H, read-out: M.I.C.)
20 µg/mL: MIC ([2]; 24 h) | MIC ([2]; 48 h) | MIC ([3]; 24 h) | MIC ([3]; 48 h) | M.I.C. ([11]; 24 H) | MIC ([16]; EXP.52145, 24 h, 24 H) | MIC ([16]; EXP.52145, 48 h, 48 H)
40 µg/mL: MIC ([8]; UC1, 24 h, 24 H) | MIC ([8]; UC1, 48 h, 48 H) | MIC ([13]; 24 h) | MIC ([13]; 48 h) | MIC ([15]; 24 h) | MIC ([15]; 48 h) | M.I.C. ([16]; 24 H) | M.I.C. ([16]; 48 H) | M.I.C. ([20]; 48 H)
0/10: Mice Alive on the 8th day ([1]; 0.5 mg subcutaneously) | Mice Alive on the 8th day ([1]; 1 mg subcutaneously)

CO/N=C(/C(=O)NC1C(=O)N2C(C(=O)O)=C(COC(C)=O)CSC12)c1csc(N)n1 (stereo not drawn) [Product A, anti isomer of 3-acetoxymethyl-7-[2-(2-amino-4-thiazolyl)-2-methoxyimino-acetamido]-ceph-3-eme-4-carboxylic acid]
40 µg/mL: MIC ([3]; 24 h) | MIC ([3]; 48 h) | MIC ([5]; DU48, 24 h, 24 H) | MIC ([13]; 24 h) | MIC ([13]; 48 h) | MIC ([17]; ATCC9, 48 h, 48 H)
1 µg/mL: MIC ([16]; EXP.52145, 24 h, 24 H) | MIC ([16]; EXP.52145, 48 h, 48 H)
10 µg/mL: MIC ([15]; 24 h, read-out: M.I.C.) | MIC ([15]; 48 h, read-out: M.I.C.)
2 µg/mL: MIC ([2]; 24 h) | MIC ([2]; 48 h) | MIC ([14]; 24 h) | MIC ([14]; 48 h)
0.4 µg/mL: MIC ([10]; A561, 24 h) | MIC ([10]; A561, 48 h)
> 40 µg/mL: MIC ([4]; 24 h) | MIC ([4]; 48 h) | MIC ([5]; DU48, 48 h, 48 H) | MIC ([6]; 24 h) | MIC ([6]; 48 h) | MIC ([7]; Enterococcus faecalis, 5432, 24 h, 24 H) | MIC ([7]; Enterococcus faecalis, 5432, 48 h, 48 H) | MIC ([8]; UC1, 24 h, 24 H) | MIC ([8]; UC1, 48 h, 48 H) | MIC ([9]; 24 h) | MIC ([9]; 48 h) | MIC ([12]; 99F74, 24 h, 24 H) | MIC ([12]; 99F74, 48 h, 48 H) | MIC ([19]; 24 h) | MIC ([19]; 48 h)
5 µg/mL: MIC ([20]; 24 h) | MIC ([20]; 48 h)
20 µg/mL: MIC ([11]; ATCC6, 24 h, 24 H) | MIC ([11]; ATCC6, 48 h, 48 H) | MIC ([17]; ATCC9, 24 h, 24 H) | MIC ([18]; 24 h)
